Experimental data taken from the C3SDB collision cross section collection.

Conditions: instrument: TW, calibrated with polyalanine and drug standards

Compound | collision cross section (N2) ([M+H]+) [Å²] | other results
CC1(C)C2CC(=O)[C@]3(C)C(CC[C@@]4(C)[C@H](c5ccoc5)OC(=O)[C@H]5O[C@]543)[C@@]2(C)C(=O)C[C@H]1O (stereo partly specified) [1,7-DIDEACETOXY-1,7-DIOXO-3-DEACETYLKHIVORIN] | 199.7 | 
CC(=O)O[C@@H]1CC(=O)[C@@]2(C)C(CC(=O)[C@]3(C)C2CC[C@@]2(C)[C@H](c4ccoc4)OC(=O)C4OC423)C1(C)C (stereo partly specified) [1,7-DIDEACETOXY-1,7-DIOXOKHIVORIN] | 210.9 | 
COc1ccccc1N1CCNCC1 [1-(2-METHOXYPHENYL)PIPERAZINE] | 140.5 | 
CCCCCCCCCCCCCCCC(=O)OCC(O)CO (stereo unspecified) [1-MONOPALMITIN] |  | collision cross section (N2) ([M+Na]+): 195.9 Å²
C[C@@H](N)[C@@H](O)c1ccccc1 [1R,2S-PHENYLPROPYLAMINE] |  | collision cross section (N2) ([M+H-H2O]+): 127.8 Å²
O=C(/C=C/c1ccccc1)c1ccc(O)cc1O [2',4'-DIHYDROXYCHALCONE] | 153.5 | 
CCOc1ccc(C(=O)c2ccc(OC)c(O)c2O)cc1 [2,3-DIHYDROXY-4-METHOXY-4'-ETHOXYBENZOPHENONE] | 164 | 
COC1=CC(=O)C=C(OC)C1=O [2,6-DIMETHOXYQUINONE] | 129.5 | 
CC1(C)CC2C1CCC1(C)OC1CCC2(C)O (stereo unspecified) [2-HYDROXY-5 (6)EPOXY-TETRAHYDROCARYOPHYLLENE] |  | collision cross section (N2) ([M+H-H2O]+): 150.8 Å²
S=c1[nH]c2ccccc2s1 [2-MERCAPTOBENZOTHIAZOLE] | 126.4 | 
COc1ccc2oc3ccccc3c(=O)c2c1 [2-METHOXYXANTHONE] | 142.4 | 
Cc1[nH]c2ccccc2c1CN(C)C [2-METHYL GRAMINE] | 140.6 | 
O=c1cccc2ccc(O)c(O)c2c1O [3,4,6-trihydroxy-5H-benzo[a]cyclohepten-5-one] | 134.7 | 
COc1ccc2c(=O)c(OC)c(-c3ccccc3)oc2c1 [3,7-DIMETHOXYFLAVONE] | 160.7 | 
CC(=O)OC1CC[C@@]2(C)C(CC[C@H]3[C@@H]4CC=C(C(C)=O)[C@@]4(C)C(=O)C[C@@H]32)C1 (stereo partly specified) [3-ACETOXYPREGN-16-EN-12,20-DIONE] | 189.5 | 
NCCc1ccc(O)c(O)c1 [3-HYDROXYTYRAMINE] | 127.7 | 
C=C1C2CC[C@@]3(C)[C@H](c4ccoc4)OC(=O)C[C@]13O[C@H]1CC(O)C(C)(C)C(CC(=O)OC)[C@@]21C (stereo partly drawn) [3alpha-HYDROXY-3-DEOXYANGOLENSIC ACID METHYL ESTER] | 204.6 | 
O=C(/C=C/c1ccccc1)c1ccc(O)cc1 [4'-HYDROXYCHALCONE] | 150.8 | 
COc1ccc(-c2cc(=O)c3ccccc3o2)cc1 [4'-METHOXYFLAVONE] | 152.1 | 
CCCCOc1cc(CC2CNC(=O)N2)ccc1OC (stereo unspecified) [4-(3-BUTOXY-4-METHOXYBENZYL)IMIDAZOLIDIN-2-ONE] | 174 | 
Cc1cc(O)cc(=O)o1 [4-HYDROXY-6-METHYLPYRAN-2-ONE] | 119.8 | 
O=C(O)CCCN1C(=O)c2cccc3cccc(c23)C1=O [4-NAPHTHALIMIDOBUTYRIC ACID] | 156.5 | 
Cc1cc(=O)oc2cc(O)cc(O)c12 [5,7-DIHYDROXY-4-METHYLCOUMARIN] | 134.4 | 

Compound | collision cross section (N2) ([M+H]+) [Å²] | other results
CC(C)CCC[C@@H](C)[C@H]1CC[C@H]2[C@@H]3CC[C@H]4C[C@@H](O)CC[C@]4(C)[C@H]3CC[C@]12C [5alpha-CHOLESTANOL] |  | collision cross section (N2) ([M+H-H2O]+): 209 Å²
O=c1cc(-c2ccc(O)cc2)oc2ccc(O)cc12 [6,4'-DIHYDROXYFLAVONE] | 152.7 | 
NC(=O)c1ccc(N)nc1 [6-AMINONICOTINAMIDE] | 125.7 | 
C=C1C2CC[C@@]3(C)[C@H](c4ccoc4)OC(=O)C[C@]13O[C@H]1CC(=O)C(C)(C)[C@H](C(O)C(=O)OC)[C@@]21C (stereo partly specified) [6-HYDROXYANGOLENSIC ACID METHYL ESTER] | 207.6 | 
CN1[C@H]2CC(=O)C[C@@H]1C(O)C2 (stereo partly specified) [6-HYDROXYTROPINONE] | 131.6 | 
O=c1cc(-c2ccccc2)oc2cc(O)ccc12 [7-HYDROXYFLAVONE] | 148.9 | 
Oc1cccc2cccnc12 [8-HYDROXYQUINOLINE] | 123.6 | 
CC(=O)O[C@@H]1C[C@@]2(C)C(CC[C@@H]2C(C)=O)C2CCC3=CC(=O)CC[C@]3(C)C21 (stereo partly specified) [11a-ACETOXYPROGESTERONE] | 190.6 | 
CC(=O)[C@H]1CC[C@H]2[C@@H]3CCC4=CC(=O)CC[C@]4(C)[C@H]3C(OC(=O)CCC(=O)O)C[C@]12C (stereo partly drawn) [11alpha-HYDROXYPROGESTERONE HEMISUCCINATE] | 201.8 | 
NC(=O)c1ncn([C@@H]2O[C@H](CO)[C@@H](O)[C@H]2O)c1N [ACADESINE] | 153 | 
C[C@H]1O[C@H](O[C@H]2[C@H](O)[C@@H](O)[C@@H](O[C@H]3[C@H](O)[C@@H](O)C(O)O[C@@H]3CO)O[C@@H]2CO)[C@H](O)[C@@H](O)[C@@H]1N[C@H]1C=C(CO)[C@@H](O)[C@H](O)[C@H]1O (stereo partly specified) [ACARBOSE] | 231 | 
CC(=O)Nc1ccc(O)cc1 [ACETAMINOPHEN] | 129.7 | 
CC(=O)Nc1ccccc1 [ACETANILIDE] | 125 | 
CC(=O)N[C@@H](CCC(=O)O)C(=O)O [ACETYLGLUTAMIC ACID] |  | collision cross section (N2) ([M+Na]+): 141.7 Å²
CC(=O)N[C@@H](Cc1c[nH]c2ccccc12)C(N)=O [ACETYLTRYPTOPHANAMIDE] |  | collision cross section (N2) ([M+Na]+): 159.3 Å²
CCCCC[C@H](CC(=O)NO)C(=O)N[C@H](C(=O)N1CCC[C@H]1CO)C(C)C [ACTINONIN] | 194.1 | 
CCCCCCCCCCCCCCCCC(C(=O)O)C(O)(CC(=O)O)C(=O)O (stereo unspecified) [AGARIC ACID] |  | collision cross section (N2) ([M+Na]+): 213.1 Å²
CC(C)(C)NCC(O)c1ccc(O)c(CO)c1 (stereo unspecified) [ALBUTEROL] | 158.4 | 
O=C(O)CCCCCCCC(O)C(O)CCCCCCO (stereo unspecified) [ALEURETIC ACID] |  | collision cross section (N2) ([M+Na]+): 175.9 Å²
COc1cc2nc(N(C)CCCNC(=O)C3CCCO3)nc(N)c2cc1OC (stereo unspecified) [ALFLUZOSIN] | 193.9 | 
COc1cc(OC)c2c(c1)OC(c1ccccc1)CC2=O (stereo unspecified) [ALPINETIN METHYL ETHER] | 162.8 | 
C=CCSCC1Nc2cc(Cl)c(S(N)(=O)=O)cc2S(=O)(=O)N1 (stereo unspecified) [ALTHIAZIDE] | 181.5 | 
C=CC[C@]1(O)CC[C@H]2[C@@H]3CCC4=CC(=O)CCC4=C3C=C[C@@]21C [ALTRENOGEST] | 177 | 
